Experimental data from ChEMBL document CHEMBL1201862, “PubChem BioAssay data set” (2004).
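A five-concentration, 48-hour dose response in 96-well plates underlies each endpoint, interpolated linearly between surrounding concentrations. The concentration for 50% growth inhibition is given as GI50.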 Active and inactive are the calls of the source. Cut-off read from the data, not from the text of the source: active = GI50 up to about 1.1 µM and inactive = higher.

Columns and labels:
Assay in all cases: NCI-60 cell line screen, 48 h
NCI/ADR-RES = test system: NCI/ADR-RES
TK-10 = test system: TK-10
OVCAR-5 = test system: OVCAR-5
IGROV-1 = test system: IGROV-1
MDA-N = test system: MDA-N
OVCAR-8 = test system: OVCAR-8
SR = test system: SR
LOX IMVI = test system: LOX IMVI
SK-MEL-2 = test system: SK-MEL-2
NCI-H226 = test system: NCI-H226
RPMI-8226 = test system: RPMI-8226
MDA-MB-231 = test system: MDA-MB-231
RXF 393 = test system: RXF 393
COLO 205 = test system: COLO 205
HOP-92 = test system: HOP-92
NCI-H23 = test system: NCI-H23
A549 = test system: A549
SK-MEL-5 = test system: SK-MEL-5
PC-3 = test system: PC-3
SK-OV-3 = test system: SK-OV-3

Row | SMILES | GI50 (NCI/ADR-RES) | GI50 (TK-10) | GI50 (OVCAR-5) | GI50 (IGROV-1) | GI50 (MDA-N) | GI50 (OVCAR-8) | GI50 (SR) | GI50 (LOX IMVI) | GI50 (SK-MEL-2) | GI50 (NCI-H226) | GI50 (RPMI-8226) | GI50 (MDA-MB-231) | GI50 (RXF 393) | GI50 (COLO 205) | GI50 (HOP-92) | GI50 (NCI-H23) | GI50 (A549) | GI50 (SK-MEL-5) | GI50 (PC-3) | GI50 (SK-OV-3)
1 | CCOC(=O)C(NC(=O)CC)(Nc1ccc(S(=O)(=O)Nc2ccc(OC)nn2)cc1)C(F)(F)F (stereo not given) | > 100 µM (inactive) | > 100 µM (inactive) | > 100 µM (inactive) | > 100 µM (inactive) | > 100 µM (inactive) | > 100 µM (inactive) | > 100 µM (inactive) | > 100 µM (inactive) | > 100 µM (inactive) | > 100 µM (inactive) | > 100 µM (inactive) | > 100 µM (inactive) | > 100 µM (inactive) | > 100 µM (inactive) | > 100 µM (inactive) | > 100 µM (inactive) | > 100 µM (inactive) | > 100 µM (inactive) | > 100 µM (inactive) | > 100 µM (inactive)
2 | CC(=O)OC(Cc1ccc2ccccc2n1)(C(F)(F)F)C(F)(F)F | 1.72 µM (inactive) | 0.33 µM (active) | 2.89 µM (inactive) | 1.31 µM (inactive) | 1.17 µM (inactive) | 1.69 µM (inactive) | 0.11 µM (active) | 0.267 µM (active) | 1.36 µM (inactive) | 1.76 µM (inactive) | 0.0272 µM (active) | 1.28 µM (inactive) | 0.675 µM (active) | 0.217 µM (active) | 0.142 µM (active) | 1.58 µM (inactive) | 9.53 µM (inactive) | 0.253 µM (active) | 2.09 µM (inactive) | 14.3 µM (inactive)
3 | Cc1c(C)c(CC(=O)N2CC2)c(C)c(C)c1CC(=O)N1CC1 | 11 µM (inactive) | 25.9 µM (inactive) | 25.7 µM (inactive) | 17.1 µM (inactive) | 13.8 µM (inactive) | 10.2 µM (inactive) | 0.33 µM (active) | 5.19 µM (inactive) | 16 µM (inactive) | 15.5 µM (inactive) | 10.6 µM (inactive) | 19.2 µM (inactive) | 3.61 µM (inactive) | 14.7 µM (inactive) | 9.48 µM (inactive) | 2.77 µM (inactive) | 7.28 µM (inactive) | > 10 µM (inactive) | 16 µM (inactive) | 16.8 µM (inactive)
4 | COc1c(OC(C)=O)c(OC(C)=O)cc2c1-c1ccc(SC)c(=O)cc1C(NC(C)=O)CC2 (stereo not given) | > 76.6 µM (inactive) | 15.3 µM (inactive) | 10.1 µM (inactive) | 0.933 µM (active) | 0.163 µM (active) | 1.49 µM (inactive) | 0.448 µM (active) | 1.81 µM (inactive) | 0.31 µM (active) | 7.82 µM (inactive) | 0.416 µM (active) | 0.512 µM (active) | 3.66 µM (inactive) | 1.65 µM (inactive) | 0.425 µM (active) | 0.392 µM (active) | 4.19 µM (inactive) | 0.184 µM (active) | 2.14 µM (inactive) | 2.91 µM (inactive)
5 | CN1CCN(CCCNN)CC1 | > 100 µM (inactive) | > 100 µM (inactive) | > 100 µM (inactive) | > 100 µM (inactive) | > 100 µM (inactive) | > 100 µM (inactive) | 0.0327 µM (active) | > 100 µM (inactive) | > 100 µM (inactive) | > 100 µM (inactive) | 86.7 µM (inactive) | > 100 µM (inactive) | > 100 µM (inactive) | > 100 µM (inactive) | > 100 µM (inactive) | > 100 µM (inactive) | > 100 µM (inactive) | > 100 µM (inactive) | > 100 µM (inactive) | > 100 µM (inactive)
6 | CC(=O)[C@H]1[C@@H](OCc2ccccc2)O[N+]([O-])=C(C)[C@@H]1c1ccccc1 | 39.1 µM (inactive) | 56.1 µM (inactive) | > 100 µM (inactive) | 35.8 µM (inactive) | 41.7 µM (inactive) | 30.4 µM (inactive) | 19.2 µM (inactive) | 21 µM (inactive) | 63.2 µM (inactive) | 52.1 µM (inactive) | 14.7 µM (inactive) | 34.6 µM (inactive) | 17.3 µM (inactive) | 42.7 µM (inactive) | 24.8 µM (inactive) | 54.7 µM (inactive) | 53.2 µM (inactive) | 48.5 µM (inactive) | 36.1 µM (inactive) | > 100 µM (inactive)
